Assay results published in article PMC9993459, “A novel selective spleen tyrosine kinase inhibitor SKI-O-703 (cevidoplenib) ameliorates lupus nephritis and serum-induced arthritis in murine models” (Clinical and Experimental Immunology, 2022).

Legend:
FGFR3 = FGFR3 (Homo sapiens, UniProt P22607); test: Kinase assay (LANCE Ultra TR-FRET), FGFR3; format: biochemical
Method: (§1) Kinase assays were conducted in 384-well plates using LANCE ultra 66 time-resolved fluorescence resonance energy transfer (TR-FRET) methods, according to the manufacturer’s instructions (Perkin-Elmer). In brief, each kinase was pre-incubated with a serially diluted compound for 30 min, incubated with ULight poly-GT peptide substrate and ATP for up to 1 h. Thirty minutes after adding Eu-labeled anti-phosphopeptides Ab diluted in LANCE Detection Buffer, LANCE signals were measured with an EnVision multilabel reader (Perkin-Elmer).

[1] = target: T1, phosphorylated Syk (p-Syk) in THP-1 cells (Homo sapiens, UniProt P43405); test: p-Syk ELISA in IgG-stimulated THP-1 cells (FcγR signal); format: cell-based
T1 construct: endogenous in cells; host or cells: Ramos (ATCC), THP-1 (ATCC), human CD14+ monocytes (Lonza)
Method: THP-1 and Ramos cell lines and human CD14^+ monocytes were purchased from the American Type Culture Collection (ATCC) and Lonza, respectively. After treatment with Syk inhibitors for 1 h, THP-1 cells and monocytes were stimulated for 15 min with 100 μg/ml human IgG (Invitrogen), and Ramos cells were stimulated with 2 μg/ml anti-human IgM monoclonal Ab (mAb) (Bathyl). Cells were lysed in RIPA buffer containing 1% NP-40, 1% sodium deoxycholate, 0.1% SDS, and a mixture of protease and phosphatase inhibitors (Thermo Scientific). The lysates were assayed by standard immunoblotting methods and ELISA. Primary Abs used for immunoblotting were anti-phospho-Syk ([…]), anti-phospho-Vav (Y174), anti-phospho-PLCγ1 (Y1217) and anti-phospho-BLNK (Y96) Abs (all from Cell Signaling). ELISAs to detect phospho-Syk (Y525/526) were performed according to the manufacturer’s protocol (Cell Signaling).
Ramos cells (A), human primary monocytes (B), and THP cells (C) were pretreated with inhibitors at the indicated concentrations and stimulated with anti-human IgM (A) and human IgG (B and C). […] The relative intensities of protein phosphorylation levels were quantitated with reference to each lane of β-actin control bands. (D) Ramos cells, human primary monocytes, and THP cells were treated as in A–C for 24 h and levels of phosphorylated Syk (p-Syk) were measured by ELISA.

FGFR2 = FGFR2 (Homo sapiens, UniProt P21802); test: Kinase assay (LANCE Ultra TR-FRET), FGFR2; format: biochemical
Method: as §1

Jak3 = Jak3 (Homo sapiens, UniProt P52333); test: Kinase assay (LANCE Ultra TR-FRET), Jak3; format: biochemical
Method: as §1

BALB/c mice = test: K/BxN serum-transferred arthritis (KSTA) in BALB/c mice; format: in vivo, mouse
Method: Arthritogenic serum was collected from 8-to-15-week-old K/BxN mice. Eight-week-old male BALB/c mice were injected intraperitoneally (ip) with 100 μl of K/BxN serum to induce arthritis. The mice were treated orally twice daily with 42 or 84 mpk of SKI-O-703 from that day for 9 days. In some experiments, mice were injected ip every 2 days with 400 μg/mouse of the TNF blocker, etanercept (Amgen). Ankle thickness was measured, and arthritic index was determined daily, as described previously. On day 9 post-induction, spleens and draining (inguinal and axillary) lymph nodes (LNs) were removed post mortem and assayed by histopathological and immunologic methods.
Hind paws were removed from KSTA mice, fixed, and decalcified in 5.5% EDTA in phosphate-buffered formalin. The paws were embedded in paraffin, sectioned, and stained with hematoxylin and eosin (H&E). Arthritic changes in the ankle and foot were scored (0–4 scale) and expressed as a histopathologic index, as described previously. Safranine O-stained sections were scored (0–4 scale) and expressed as the score for cartilage erosion, as described.
Single-cell suspensions of spleen and LN cells were prepared as previously described. Joint tissues from hind paws of KSTA mice were dissected free of soft tissue and bones, digested with 100 μg/ml Liberase (Roche) for 45 min at 37 °C, and filtered through a 70-μm-pore cell strainer (SPL Life Sciences) to prepare single cell suspensions of synovial infiltrates. The single cell suspensions were stained with an appropriate combination of mAbs and analyzed by FACS. The mAbs used were: CD138-PE, B220-PerCP or -APC-cy7, FAS-PE, CD19-PerCP or -APC, CD21-FITC or -APC, CD43-APC, CD23-PE-cy7, CD8a-PE, CD25-APC-cy7, CXCR5-biotin, GL7-FITC, CD45.2-FITC, CD27-FITC, Ki-67-FITC, Gr-1-FITC, CD4-FITC or -APC-cy7, phospho-Syk-PE, CD11b-PE or -PerCP, PD-1-APC, CD44-APC-cy7, and F4/80-PerCP mAbs (all from BD Biosciences, eBioscience or Biolegend). Streptavidin-PerCP was purchased from BD Biosciences.

mouse primary B cells = test: CP670-dilution proliferation assay, BCR crosslinking (anti-IgM) stimulated B cells; format: cell-based; conditions: 0.1–5 μM, CP670 dilution, 72 h
Method: Splenic CD19^+ B cells from C57BL/6 mice were sorted by MACS (Milteny Biotec), stained with 3 μM cell proliferation dye eFluor 670 (CP670; eBioscience), and cultured for 72 h in the presence of either 10 μg/ml LPS (Sigma Aldrich) or 5 μg/ml anti-mouse IgM (Jackson Immuno Research Laboratories), 10 μg/ml anti-CD40 mAb (Biolegend) and 10 ng/ml IL-4 (Peprotech), and assayed by FACS. To detect apoptotic cells, unstimulated cells were cultured for 24 h, stained with Annexin V and 7-aminoactinomycin D (7-AAD), and assayed by FACS.
Figure 2: in vitro effects of SKI-O -703 on the proliferation, survival, and differentiation of B cells. Mouse primary B cells were labeled with CP670, and stimulated with either anti-IgM mAb, CD40L and IL-4 (A) or LPS (B) for 72 h in the presence or absence of SKI-O-703 and tofacitinib at the indicated concentrations; they were then assayed by FACS. (C and D) Mouse primary B cells were cultured as in A and B for 24 h, stained with Annexin V and 7-AAD, and assayed by FACS. Representative FACS profiles and graphs displaying mean Annexin V-positivity are shown. (E) Human primary B cells were stimulated with CpG ODN plus IL-2 (to detect IgM and IgG) or CpG ODN 2006 plus IFN-α (to detect IL-6) in the presence or absence of inhibitors. The culture supernatants were assayed by ELISA. Graphs are expressed as % positivity relative to the controls (without inhibitor). […]

Chain of FGFR2 (P21802 22-821, species assumed): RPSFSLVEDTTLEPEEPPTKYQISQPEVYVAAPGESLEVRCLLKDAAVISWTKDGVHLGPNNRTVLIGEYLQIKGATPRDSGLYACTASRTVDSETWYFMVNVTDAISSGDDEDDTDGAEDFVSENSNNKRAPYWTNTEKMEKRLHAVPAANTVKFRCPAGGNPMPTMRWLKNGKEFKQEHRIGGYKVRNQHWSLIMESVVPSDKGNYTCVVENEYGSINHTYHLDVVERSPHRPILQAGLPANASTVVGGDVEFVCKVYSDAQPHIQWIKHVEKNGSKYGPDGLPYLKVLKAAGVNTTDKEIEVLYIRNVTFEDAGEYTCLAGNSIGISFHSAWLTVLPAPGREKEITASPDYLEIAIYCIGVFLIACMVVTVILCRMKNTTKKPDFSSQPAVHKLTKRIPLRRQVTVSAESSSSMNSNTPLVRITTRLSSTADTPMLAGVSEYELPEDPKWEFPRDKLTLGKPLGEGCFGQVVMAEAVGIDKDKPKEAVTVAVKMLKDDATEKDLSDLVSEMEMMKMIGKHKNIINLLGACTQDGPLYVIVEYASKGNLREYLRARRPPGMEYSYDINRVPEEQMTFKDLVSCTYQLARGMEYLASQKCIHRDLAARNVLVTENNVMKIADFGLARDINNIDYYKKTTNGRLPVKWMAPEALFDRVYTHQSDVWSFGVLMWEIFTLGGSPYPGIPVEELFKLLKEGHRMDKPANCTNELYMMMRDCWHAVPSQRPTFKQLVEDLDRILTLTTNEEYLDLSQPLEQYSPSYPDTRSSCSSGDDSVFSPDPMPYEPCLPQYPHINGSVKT
Chain of Jak3 (P52333 whole entry, species assumed): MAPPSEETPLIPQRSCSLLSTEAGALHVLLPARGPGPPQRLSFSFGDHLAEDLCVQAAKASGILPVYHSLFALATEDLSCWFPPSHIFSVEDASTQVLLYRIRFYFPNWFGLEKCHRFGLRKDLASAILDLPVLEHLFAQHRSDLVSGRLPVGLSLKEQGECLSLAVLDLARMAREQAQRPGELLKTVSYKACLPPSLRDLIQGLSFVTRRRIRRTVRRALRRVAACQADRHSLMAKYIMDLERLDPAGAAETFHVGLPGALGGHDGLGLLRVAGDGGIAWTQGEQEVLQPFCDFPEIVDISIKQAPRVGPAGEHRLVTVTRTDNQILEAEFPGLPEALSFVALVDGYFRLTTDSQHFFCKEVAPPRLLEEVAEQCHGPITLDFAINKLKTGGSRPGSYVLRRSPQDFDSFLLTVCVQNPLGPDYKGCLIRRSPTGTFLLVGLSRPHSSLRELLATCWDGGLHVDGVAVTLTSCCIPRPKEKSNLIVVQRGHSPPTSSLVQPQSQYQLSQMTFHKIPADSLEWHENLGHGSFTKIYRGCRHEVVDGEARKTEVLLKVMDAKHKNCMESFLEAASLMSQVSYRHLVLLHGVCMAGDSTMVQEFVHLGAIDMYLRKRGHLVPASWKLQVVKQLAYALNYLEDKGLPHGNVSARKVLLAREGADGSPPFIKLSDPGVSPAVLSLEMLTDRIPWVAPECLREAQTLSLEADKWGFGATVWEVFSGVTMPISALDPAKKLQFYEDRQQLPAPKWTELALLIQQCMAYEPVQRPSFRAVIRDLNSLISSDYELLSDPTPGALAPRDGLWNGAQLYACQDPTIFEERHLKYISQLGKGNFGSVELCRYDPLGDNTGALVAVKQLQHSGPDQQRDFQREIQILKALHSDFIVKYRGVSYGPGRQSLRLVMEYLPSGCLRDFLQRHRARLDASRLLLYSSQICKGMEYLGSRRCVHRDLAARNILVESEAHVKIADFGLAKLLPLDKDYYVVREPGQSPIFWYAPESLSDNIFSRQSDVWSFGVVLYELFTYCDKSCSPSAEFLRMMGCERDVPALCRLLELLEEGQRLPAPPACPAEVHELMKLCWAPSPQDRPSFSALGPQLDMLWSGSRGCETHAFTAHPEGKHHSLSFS
Chain of FGFR3 (P22607 23-806, species assumed): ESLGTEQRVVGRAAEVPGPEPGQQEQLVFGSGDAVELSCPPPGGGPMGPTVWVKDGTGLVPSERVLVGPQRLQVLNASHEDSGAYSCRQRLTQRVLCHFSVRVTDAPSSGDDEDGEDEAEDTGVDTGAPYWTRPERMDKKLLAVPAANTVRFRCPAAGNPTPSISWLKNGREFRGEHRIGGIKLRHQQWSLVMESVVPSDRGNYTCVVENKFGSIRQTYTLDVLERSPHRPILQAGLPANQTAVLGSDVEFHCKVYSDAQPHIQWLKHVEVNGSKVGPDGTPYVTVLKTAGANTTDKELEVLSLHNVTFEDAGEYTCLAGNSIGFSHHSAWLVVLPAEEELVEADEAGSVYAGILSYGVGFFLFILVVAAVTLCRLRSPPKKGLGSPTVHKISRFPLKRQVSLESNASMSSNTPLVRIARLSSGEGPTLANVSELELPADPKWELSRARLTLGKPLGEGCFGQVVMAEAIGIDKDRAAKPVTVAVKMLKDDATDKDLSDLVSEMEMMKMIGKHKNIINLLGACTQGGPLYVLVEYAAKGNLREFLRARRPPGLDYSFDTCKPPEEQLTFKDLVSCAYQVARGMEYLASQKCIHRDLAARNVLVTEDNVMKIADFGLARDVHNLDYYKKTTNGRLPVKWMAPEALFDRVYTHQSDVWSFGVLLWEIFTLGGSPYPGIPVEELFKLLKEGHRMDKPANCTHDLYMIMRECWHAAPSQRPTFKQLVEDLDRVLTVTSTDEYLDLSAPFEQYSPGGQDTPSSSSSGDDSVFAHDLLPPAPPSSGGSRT

| Structure (SMILES) | Ratio to Syk (FGFR3) (FGFR3; IC50 ratio to Syk) | IC50 (FGFR3; kinase activity, TR-FRET) [µM] | IC50 [1] [µM] | Ratio to Syk (FGFR2) (FGFR2; IC50 ratio to Syk) | IC50 (FGFR2; kinase activity, TR-FRET) [µM] | Ratio to Syk (Jak3) (Jak3; IC50 ratio to Syk) | IC50 (Jak3; kinase activity, TR-FRET) [µM] | Ankle thickness and arthritic index (BALB/c mice; 42 mpk (lower dose) oral twice daily for 9 days) | Progression of KSTA (ankle thickness, arthritic index, inflammatory cell infiltration) (BALB/c mice; 42 mpk SKI-O-703 combined with TNF blocker etanercept, synergistic) | Ankle thickness and arthritic index (BALB/c mice; 84 mpk oral twice daily for 9 days) | Numbers of whole immune cells (CD45+) infiltrated into synovial tissue (BALB/c mice; 84 mpk, mainly neutrophils and macrophages) | Histopathologic index and cartilage erosion score (BALB/c mice; high dose (84 mpk), day 9) | Joint-draining LN total cells, B cells and GC B cells (BALB/c mice; high dose, day 9, lymphadenopathy disappeared) | Progression of KSTA (BALB/c mice; suboptimal dose 42 mpk, alone) | BCR crosslinking-induced proliferation (mouse primary B cells) |
| --- | --- | --- | --- | --- | --- | --- | --- | --- | --- | --- | --- | --- | --- | --- | --- |
| Cc1nn(-c2ccnc(Nc3ccc4c(c3)c(C(=O)C3CC3)cn4C)n2)cc1CN1C[C@H](O)CO1 [SKI-O-592] | 919 | 5.66 | 0.266 | >1623 | > 10 | 943 | 5.81 | – | – | – | – | – | – | – | – |
| CS(=O)(=O)O.CS(=O)(=O)O.Cc1nn(-c2ccnc(Nc3ccc4c(c3)c(C(=O)C3CC3)cn4C)n2)cc1CN1C[C@H](O)CO1 [SKI-O-703, (S)-cyclopropyl(5-((4-(4-((4-hydroxyisoxazolidin-2-yl)methyl)-3-methyl-1H-pyrazol-1-yl)pyrimidin-2-yl)amino)-1-methyl-1H-indol-3-yl)methanone dimesylate] | – | – | – | – | – | – | – | the reduction was less pronounced | significantly suppressed disease progression | dramatically reduced to the basal level | significantly reduced | significantly reduced | significantly reduced numbers | did not significantly inhibit progression of KSTA | inhibited BCR crosslinking-induced proliferation in a concentration-dependent manner |
